Where “and” joins values, the source holds several entries; their conditions need not be identical. Identical values can stand only once.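 In this assay, cells in 96-well plates receive the compound at five concentrations for 48 hours. Endpoints are linearly interpolated between the surrounding concentrations. GI50 is the concentration that inhibits growth by half. TGI is the concentration that stops growth completely.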
Legend:
Experiment in all cases: DTP human tumour cell line panel, 48 h
U251 CNS = system: U251 CNS
M14 melanoma = system: M14 melanoma
UO-31 renal = system: UO-31 renal
SW-620 colon = system: SW-620 colon
HL-60(TB) leukemia = system: HL-60(TB) leukemia
IGROV1 ovarian = system: IGROV1 ovarian
NCI-H522 lung = system: NCI-H522 lung
OVCAR-8 ovarian = system: OVCAR-8 ovarian
ACHN renal = system: ACHN renal
OVCAR-5 ovarian = system: OVCAR-5 ovarian

SMILES | TGI (U251 CNS) | TGI (M14 melanoma) | TGI (UO-31 renal) | TGI (SW-620 colon) [µM] | TGI (HL-60(TB) leukemia) [µM] | TGI (IGROV1 ovarian) | TGI (NCI-H522 lung) | TGI (OVCAR-8 ovarian) [µM] | TGI (ACHN renal) | TGI (OVCAR-5 ovarian) | GI50 (HL-60(TB) leukemia) | GI50 (OVCAR-8 ovarian) [µM] | GI50 (M14 melanoma) [µM] | GI50 (UO-31 renal) | GI50 (SW-620 colon) | GI50 (IGROV1 ovarian) [µM] | GI50 (OVCAR-5 ovarian) [µM] | GI50 (ACHN renal) [µM] | GI50 (U251 CNS) [µM] | GI50 (NCI-H522 lung) [µM]
O=C(/C=C/c1cccc([N+](=O)[O-])c1)c1ccc([N+](=O)[O-])cc1 | > 100 µM | > 100 µM | > 100 µM | > 100 | > 100 | > 100 µM | > 100 µM | > 100 | > 100 µM | > 100 µM |  |  |  |  |  |  |  |  |  | 
COC(=O)[C@@H]1Cc2c([nH]c3ccccc23)[C@H](c2ccccc2)N1 | > 100 µM | 79.6 µM | 73.9 µM | > 100 | > 100 | 92 µM | 53.1 µM | > 100 | > 100 µM | > 100 µM |  |  |  |  |  |  |  |  |  | 
COC1(OC)C2(Cl)C(Cl)=C(Cl)C1(Cl)C1C2C2CC1(C(=O)O)c1ccccc12 (stereo not drawn) | 35.5 µM | 32 µM | 44.7 µM | 54.3 | 43.1 | 69.5 µM |  | 88.3 | > 100 µM |  |  |  |  |  |  |  |  |  |  | 
COc1ccc([C@@]23Oc4cc(OC)cc(OC)c4[C@]2(O)[C@H](O)[C@H](C(N)=O)[C@H]3c2ccccc2)cc1 | 0.612 µM and 0.194 µM | 0.0233 µM and < 0.01 µM | 0.0765 µM and 0.0995 µM |  | 0.0785 | 0.0641 µM and < 0.0206 µM | 0.0737 µM and < 0.0104 µM |  | 0.0474 µM and 0.0476 µM | 0.074 µM and < 0.0291 µM | < 10 nM | < 0.0122 |  |  |  |  |  |  |  | 
O=C(Nc1ccc(Cl)cc1Cl)OC(Cn1cncn1)c1ccc(Cl)cc1Cl (stereo not drawn) | 29.7 µM | 32.1 µM | 26 µM | 30.4 | > 100 | 31.4 µM | 34.8 µM | 31.8 | 29 µM |  |  |  |  |  |  |  |  |  |  | 
CCCCCCCCCC[C@H](O)[C@H](O)CC[C@@H](O)[C@H]1CC[C@@H]([C@H]2CC[C@H](CCCCCCC[C@@H](O)CC3=C[C@H](C)OC3=O)O2)O1 | > 100 µM | 58.4 µM | 4.18 µM and 32.3 µM | > 100 | 6.74 |  | 62.1 µM |  | > 100 µM | > 100 µM |  |  | 23.1 | 16.6 µM | 47.2 µM | 25.8 | 47.7 |  |  | 
Nc1c(Cl)ncnc1NCCCCCCCCCCCCNc1ncnc(Cl)c1N | 4.64 µM | 57.3 µM | 18.3 µM | 54 | 2.12 | > 100 µM |  | > 100 |  | > 100 µM |  |  |  |  |  |  |  |  |  | 
COC1OC2COC(C)(C)OC2C(OC(C)=O)C1NC(=O)N(CCCl)N=O (stereo not drawn) | > 100 µM | > 100 µM |  | > 100 | 53.3 | > 100 µM | 67.1 µM | > 100 | > 100 µM | > 100 µM |  |  |  |  |  |  |  |  |  | 
COC(=O)[C@@]12CC(C(C)C)[C@H]3CC(C(=O)C=C1OC)[C@H]32 (stereo partly drawn) | > 100 µM | > 100 µM |  | > 100 | > 100 | > 100 µM |  | > 100 | > 100 µM | > 100 µM |  |  |  |  |  |  |  |  |  | 
CC(C)CCCCCCCCCCCCC(=O)NCC(=O)NC1C(O)C(O)C(Nc2ncnc3nc[nH]c23)OC1C(O)CO (stereo not drawn) |  |  | 0.00451 µM and 0.0075 µM |  |  | 0.00755 µM and 0.0084 µM |  |  |  | 0.0171 µM and 0.0695 µM |  |  | < 1e-05 | 0.005 µM | 0.000756 µM and 0.005 µM | 0.005 | 0.005 | < 1e-05 |  | 
CN(/N=C\c1ccnc2ccccc12)c1ccc([N+](=O)[O-])cc1 | > 100 µM | > 100 µM |  | > 100 | > 100 | > 100 µM |  | > 100 | > 100 µM | > 100 µM |  |  |  |  |  |  |  |  |  | 
O=C1/C(=C/c2ccc(Cl)cc2)CNC/C1=C\c1ccc(Cl)cc1 | 3.67 µM and 1.78 µM | 8.7 µM | 2.98 µM and 6.5 µM |  |  | 4.15 µM and 3.49 µM | 4.4 µM and 4.75 µM |  | 4.17 µM and 7.08 µM | 13.4 µM | 2420 nM and 9410 nM |  |  | 1.62 µM and 3.48 µM | 0.381 µM |  |  |  | 0.502 | 
O=C(c1ccc(Cl)cc1)c1ccc(OCCCOc2ccc(C(=O)c3ccc(Cl)cc3)cc2Cl)c(Cl)c1 | > 100 µM | > 100 µM |  | > 100 | > 100 | > 100 µM | > 100 µM | > 100 | > 100 µM | > 100 µM |  |  |  |  |  |  |  |  |  | 
CNS(=O)(=O)NNS(=O)(=O)c1ccc(OC)cc1 | > 100 µM | > 100 µM | > 100 µM | > 100 | > 100 | > 100 µM | > 100 µM | > 100 | > 100 µM |  |  |  |  |  |  |  |  |  |  | 
CC1NC(=O)C2=C1C(=O)NC(=O)C2 (stereo not drawn) |  | > 100 µM | > 100 µM | > 100 | > 100 | > 100 µM | > 100 µM | > 100 | > 100 µM | > 100 µM | > 100000 nM | > 100 | > 100 | > 100 µM | > 100 µM | > 100 | > 100 | > 100 |  | > 100
Cn1c2c(c3c(Cl)nncc31)Cc1ccccc1-2 | > 100 µM | > 100 µM | > 100 µM | > 100 |  | > 100 µM | 59.9 µM | > 100 | 54.3 µM | > 100 µM |  | 25.5 | 28.1 | 31.4 µM | 17.9 µM | 48.9 | 27.4 | 11.6 | 20 | 25.1
CC1C2C=C(O)C(=O)C(C2=O)C1c1ccccc1 (stereo not drawn) | > 100 µM | > 100 µM | > 100 µM | > 100 |  | > 100 µM | > 100 µM | > 100 | > 100 µM | > 100 µM |  |  |  |  |  |  |  |  |  | 
Cc1cc(=O)n(-c2cc3cccccc-3n2)[nH]1 | 4.96 µM | 19.6 µM | 48.3 µM | 13 | 11.6 | 8.45 µM | 6.86 µM |  | 50.3 µM | > 100 µM |  |  |  |  |  |  |  |  |  | 
N#Cc1cnc(Nc2cc(NC[C@H]3CNCCO3)c(C(F)(F)F)cn2)cn1 | 73 µM | 16.7 µM | 69.2 µM | 73.8 | 15.4 | 70.6 µM | 34.9 µM | 93 |  | 67.1 µM | 2150 nM | 3.69 | 0.388 | 5.49 µM | 18.1 µM | 5.57 | 9.37 |  | 21.8 | 13.1
N/N=C(/Cc1nc2ccc(C(=O)c3ccccc3)cc2[nH]c1=O)C(=O)Nc1ccc([N+](=O)[O-])cc1[N+](=O)[O-] | > 100 µM | > 100 µM | > 100 µM | > 100 |  | > 100 µM | > 100 µM | > 100 | > 100 µM | > 100 µM |  |  | > 100 |  |  | > 100 | > 100 | > 100 | > 100 | > 100

— PubChem BioAssay (NCI)
